Measured values: patent US10004816B2, “X-ray imaging contrast media with low iodine concentration and X-ray imaging process” (GE HEALTHCARE AS, priority 2012, dated 2018)
Each block holds one compound with its values, some of them ahead of it.

Assays:
[1] = Average cluster size in solution; assay type: physicochemical
Description: By intermolecular interactions the contrast media molecules form clusters that are continuously formed and broken up and the average cluster size may be described by a formation/destruction equilibrium. Ioforminol has an increased tendency to form clusters and in water at high concentration an average size of 4 molecules per cluster is predominating, whereas Iodixanol under similar conditions have a mean cluster size of 2.5 molecules. […] The cluster size affects the osmolality of the solution and larger clusters are reflected in a lower osmolality. The non-ideal behaviour of high concentration solutions permits the addition of physiological electrolytes to achieve isotonicity. […] This non-ideal behaviour persistent also at low concentrations enables the addition of physiological electrolytes to the current formulations.

[2] = Aorta contrast to noise ratio (CNR), arterial phase contrast enhanced abdominal CT; assay type: in vivo, minipig; conditions: for FBP [CNR]: 320 mg I/ml, 120 kVp, SoC
Experimental: (§1) Three studies were carried out in two anaesthetized minipigs (abdominal maximum and minimum diameters approximately 36 cm and 20 cm, respectively). Minipigs were imaged on a Discovery CT 750 HD. Compositions of 160 mg I/ml and 200 mg I/ml Ioforminol were prepared. The 160 mg I/ml formulation included a sodium concentration of 82 mM and a calcium concentration of 0.9 mM. The 200 mg I/ml formulation included a sodium concentration of 73 mM and a calcium concentration of 0.8 mM. For human formulations the calcium concentration is likely to be slightly lower, providing an optimized Na/Ca ratio of 110-120. The Ioforminol formulations (2 ml/kg) were injected at a rate of 2 ml/s into a jugular vein, followed by a 20 ml saline flush at the same injection rate.
(§2) For comparison, Ioforminol at a concentration of 320 mg I/ml and 120 kVp tube voltage was administered to represent the current standard of care (SoC) imaging in man. SoC scans were compared to scans performed with either […] or 200 mg I/ml contrast concentration in the same pig, with at least a 2 day washout period between each scanning session. Automated tube current modulation was used with a noise index level of 23 (SoC) and a tube rotation time of 0.7 s. Post-contrast CT images were acquired during the arterial phase, the portal venous phase, the venous phase and the late phase. Image reconstruction was done by (1) FBP, (2) ASiR 60% and (3) Veo. Pixel size was 0.703 mm×0.703 mm×2.5 mm.
(§3) Iodine contrast enhancement was assessed by measuring the mean x-ray attenuation values (in HUs) within circular region of interests (ROIs). ROIs were placed in both aorta and muscle (quadratus lumborum) in arterial phase images and in the liver in venous phase images. See Tables 1-6 and corresponding FIGS. 1-6. The aorta contrast to noise ratio (CNR) was calculated as the difference in signal between the aorta and muscle, divided by the noise in muscle. The liver signal to noise ratio (SNR) was calculated as the ratio of the mean liver attenuation and the standard deviation (SD).

[3] = Liver signal to noise ratio (SNR), venous phase contrast enhanced abdominal CT; assay type: in vivo, minipig; conditions: for FBP [SNR]: 320 mg I/ml, 120 kVp, SoC
Experimental: as §1, §2, §3

[4] = Viscosity of Ioforminol compositions; assay type: physicochemical; conditions: 20° C.
Experimental: For X-ray diagnostic compositions which are administered by injection or infusion, the desired upper limit for the solution's viscosity at ambient temperature (20° C.) is generally about 30 mPas, however viscosities of up to 50 to 60 mPas and even more than 60 mPas are seen. With the low concentration of iodine in the composition of the invention the viscosity is below 10 mPas at 20° C., and this is even considerably lower at the lower end of the iodine concentration range. […] For comparison a 320 mg I/ml composition of Ioforminol has a viscosity of 28 mPas (at 20° C.). Particularly, for a 160 mg I/ml composition of Ioforminol the viscosity is only 2.9 mPas (at 20° C.), and for a 200 mg I/ml composition the viscosity is 4.7 mPas (20° C.). […] Such low viscosity has the advantage that the composition is easy to administer and the administration can be done more quickly with a higher volume per time unit, particularly as the injection pressure needed is considerably lower than with compositions with higher viscosities. The lower viscosity enables a reduction in the needle- or catheter diameter down to about 63% of the original diameter without effecting flow rate or injection pressure. As a consequence a hand-held syringe can be used rather than an autoinjector.

[5] = 160 mg I/ml, 80 kVp, CTDIvol 5.2 mGy, FIG. 2
[6] = 200 mg I/ml, 80 kVp, CTDIvol 6.9 mGy, FIG. 1
[7] = 200 mg I/ml, 100 kVp, CTDIvol 5.2 mGy, FIG. 3
[8] = 160 mg I/ml, 80 kVp, CTDIvol 5.2 mGy, FIG. 5
[9] = 200 mg I/ml, 80 kVp, CTDIvol 6.9 mGy, FIG. 4
[10] = 200 mg I/ml, 100 kVp, CTDIvol 5.2 mGy, FIG. 6

SMILES: CC(=O)N(CC(O)CN(C(C)=O)c1c(I)c(C(=O)NCC(O)CO)c(I)c(C(=O)NCC(O)CO)c1I)c1c(I)c(C(=O)NCC(O)CO)c(I)c(C(=O)NCC(O)CO)c1I (centres unmarked) [Iodixanol, iodixanol, reference compound]
- average cluster size ([1]; in water at high concentration): 2.5 molecules per cluster
- average cluster size ([1]; low concentrations): no longer present

- viscosity ([4]; 160 mg I/ml composition): 2.9 mPas
- viscosity ([4]; 200 mg I/ml composition): 4.7 mPas
- viscosity ([4]; 320 mg I/ml composition): 28 mPas
- average cluster size ([1]; in water at high concentration): 4 molecules per cluster
- average cluster size ([1]; low concentrations): 2-3 molecules per cluster
SMILES: O=CN(CC(O)CN(C=O)c1c(I)c(C(=O)NCC(O)CO)c(I)c(C(=O)NCC(O)CO)c1I)c1c(I)c(C(=O)NCC(O)CO)c(I)c(C(=O)NCC(O)CO)c1I (centres unmarked) [Ioforminol, 5,5′-((2-hydroxypropane-1,3-diyl)bis(formylazanediyl))bis(N1,N3-bis(2,3-dihydroxypropyl)-2,4,6-triiodoisophthalamide)]
- ASiR 60% [CNR] [2, 5]: 15.1
- Veo [CNR] [2, 5]: 32.1
- ASiR 60% [CNR] [2, 6]: 23
- Veo [CNR] [2, 6]: 46.7
- ASiR 60% [CNR] [2, 7]: 17.7
- Veo [CNR] [2, 7]: 33.2
- FBP [CNR] ([2]; CTDIvol 7.4 mGy, FIG. 2 and 3): 16.9
- FBP [CNR] ([2]; CTDIvol 9.8 mGy, FIG. 1): 17.7
- ASiR 60% [SNR] [3, 8]: 7.7
- Veo [SNR] [3, 8]: 15.1
- ASiR 60% [SNR] [3, 9]: 9.5
- Veo [SNR] [3, 9]: 16.7
- ASiR 60% [SNR] [3, 10]: 7.9
- Veo [SNR] [3, 10]: 13.1
- FBP [SNR] ([3]; CTDIvol 7.4 mGy, FIG. 5 and 6): 8.2
- FBP [SNR] ([3]; CTDIvol 9.8 mGy, FIG. 4): 7.7
